# Target: T1, oxytocin receptor (Rattus norvegicus, UniProt P70536)
# T1 construct: crude membrane preparation of rat uterus as the source of oxytocin receptors; from tissue; host or cells: rat uterus, crude membrane preparation
# T1 sequence (P70536 1-388): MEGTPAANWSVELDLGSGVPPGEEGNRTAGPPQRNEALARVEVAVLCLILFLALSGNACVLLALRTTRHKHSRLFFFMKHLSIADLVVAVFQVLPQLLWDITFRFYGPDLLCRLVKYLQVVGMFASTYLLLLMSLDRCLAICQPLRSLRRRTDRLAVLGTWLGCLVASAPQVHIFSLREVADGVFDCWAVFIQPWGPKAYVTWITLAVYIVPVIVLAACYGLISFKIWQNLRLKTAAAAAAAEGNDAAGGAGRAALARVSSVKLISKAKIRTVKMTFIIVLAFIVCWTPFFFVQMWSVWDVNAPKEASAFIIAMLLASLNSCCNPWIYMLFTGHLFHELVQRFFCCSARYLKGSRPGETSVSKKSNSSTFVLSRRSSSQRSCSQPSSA
# Experiment: [^3H]Oxytocin Binding Assay (crude membrane preparation of rat uterus)
# Conditions: not given
# Description: The biological activities of the compounds of Formula I have been evaluated using a[^3 H]oxytocin binding assay.
# [^3 H]Oxytocin Binding Assay
# Oxytocin receptors have been identified in mammalian uterine tissue through the use of in vitro radioligand binding assays. These receptor binding sites mediate the contractile response of the uterine myometrium to oxytocin. The present radioligand binding procedure has been adapted from the methods of Soloff, M. S. and Grzonka, Z., Endocrinology 119: 1564-1569 (1986) and Fuchs, A-R., Fuchs, F., and Soloff, M. S., J. Clinical Endocrinology and Metabolism 60: 37-41 (1985) and is utilized here to measure the relative affinity of test compounds for the oxytocin receptor labeled by [^3 H]oxytocin. The assay uses a crude membrane preparation of rat uterus as the source of oxytocin receptors. The IC50 values (concentration of test compound to inhibit [^3 H]oxytocin binding by 50%) are determined by incubating uterine tissue with [^3 H]oxytocin in the presence or absence of varying concentrations of compound.
row,SMILES,IC50
1,"CN1C(=O)[C@H](NS(=O)(=O)C[C@@]23CC[C@@H](CC2=O)C3(C)C)N=C(c2ccccc2)c2ccccc21 [Example 15, (1R-(1.ALPHA.(S*),4.ALPHA.))-N-(2,3-DIHYDRO-1-METHYL-2-OXO-5-PHENYL-1H-1,4- BENZODIAZEPIN-3-YL)-7,7-DIMETHYL-2-OXO-BICYCLO(2.2.1)HEPTANE-1-METHANESULFONAMIDE]",1.4 µM
2,"CN1C(=O)C(NS(=O)(=O)C[C@]23CC[C@H](CC2=O)C3(C)C)N=C(c2ccccc2)c2ccccc21 (stereo partly drawn) [Example 8, (1S)-(1.ALPHA.(RS),4.ALPHA.))-N-(2,3-DIHYDRO-1-METHYL-2-OXO-5-PHENYL-1H-1,4-BENZODIAZEPIN-3-YL)-7,7-DIMETHYL-2-OXO-BICYCLO(2.2.1)HEPTANE-1-METHANESULFONAMIDE]",4.6 µM
3,"CN1C(=O)C(NC(=O)NCC23CC4CC(CC(C4)C2)C3)N=C(c2ccccc2)c2ccccc21 (racemic) [Example 6, (+/-)-N-(2,3-DIHYDRO-1-METHYL-2-OXO-5-PHENYL-1H-1,4-BENZODIAZEPIN-3-YL)-N'- TRICYCLO(3.3.1.1(3,7))DEC-1-YL-METHYL)-UREA]",2.7 µM
4,"CN1C(=O)[C@@H](NS(=O)(=O)C[C@@]23CC[C@@H](CC2O)C3(C)C)N=C(c2ccccc2)c2ccccc21 (stereo partly drawn) [Example 17, N-(2,3-DIHYDRO-1-METHYL-2-OXO-5-PHENYL-1H-1,4-BENZODIAZEPIN-3-YL)-2-HYDROXY-7,7-DIMETHYL-BICYCLO(2.2.1) HEPTANE-1-METHANESULFONAMIDE]",2.5 µM
5,"CN1C(=O)C(NC(=O)NC2C3CC4CC(C3)CC2C4)N=C(c2ccccc2)c2ccccc21 (racemic) [Example 1, (+/-)-N-(2,3-DIHYDRO-1-METHYL-2-OXO-5-PHENYL-1H-1,4-BENZODIAZEPIN-3-YL)-N'- TRICYCLO(3.3.1.1(3,7))DEC-2-YL-UREA]",3.9 µM
6,"CN1C(=O)C(NS(=O)(=O)C[C@@]23CC[C@@H](CC2=O)C3(C)C)N=C(c2ccccc2)c2ccccc21 (stereo partly drawn) [Example 9, (1R-(1.ALPHA.(RS),4.ALPHA.))-N-(2,3-DIHYDRO-1-METHYL-2-OXO-5-PHENYL-1H-1,4- BENZODIAZEPIN-3-YL)-7,7-DIMETHYL-2-OXO-BICYCLO(2.2.1)HEPTANE-1-METHANESULFONAMIDE]",3.6 µM
7,"CN1C(=O)C(NC(=O)C23CC4CC(CC(C4)C2)C3)N=C(c2ccccc2)c2ccccc21 (racemic) [Example 4, (+/-)-N-(2,3-DIHYDRO-1-METHYL-2-OXO-5-PHENYL-1H-1,4-BENZODIAZEPIN-3-YL)-TRICYCLO(3.3.1.1(3,7))DECANE-1-CARBOXAMIDE]",13.8 µM
8,"CN1C(=O)[C@H](NC(=O)NC23CC4CC(CC(C4)C2)C3)N=C(c2ccccc2)c2ccccc21 (single isomer, unassigned) [Example 3]",1.69 µM
9,"CN1C(=O)[C@H](NS(=O)(=O)C[C@@]23CC[C@@H](CC2O)C3(C)C)N=C(c2ccccc2)c2ccccc21 (single isomer, unassigned) [Example 16A, N-(2,3-DIHYDRO-1-METHYL-2-OXO-5-PHENYL-1H-1,4-BENZODIAZEPIN-3-YL)-2-HYDROXY-7,7-DIMETHYL-BICYCLO(2.2.1) HEPTANE-1-METHANESULFONAMIDE, ISOMER A AND ISOMER B]",1.4 µM
10,"CN1C(=O)C(NC(=O)NC2C3CC4CC(C3)CC2C4)N=C(c2ccccc2)c2ccccc21 (single isomer, unassigned; (+)) [Example 2, (+)-N-(2,3-DIHYDRO-1-METHYL-2-OXO-5-PHENYL-1H-1,4-BENZODIAZEPIN-3-YL)-N'-TRICYCLO(3.3.1.1(3,7))DEC-2-YL-UREA]",1.6 µM
11,"CN1C(=O)C(NC(=O)CC23CC4CC(CC(C)(C4)C2)C3)N=C(c2ccccc2)c2ccccc21 (racemic) [Example 7, (+/-)-N-(2,3-DIHYDRO-1-METHYL-2-OXO-5-PHENYL-1H-1,4-BENZODIAZEPIN-3-YL)-3-METHYLTRICYCLO(3.3.1.1(3,7))DECANE-1-ACETAMIDE]",4.7 µM
12,"CN1C(=O)C(NC(=O)CC23CC4CC(CC(C4)C2)C3)N=C(c2ccccc2)c2ccccc21 (racemic) [Example 5, (+/-)-N-(2,3-DIHYDRO-1-METHYL-2-OXO-5-PHENYL-1H-1,4-BENZODIAZEPIN-3-YL)-TRICYCLO(3.3.1.1(3,7))DECANE-1-ACETAMIDE)]",2.8 µM

# Same assay, conditions: [^3H]oxytocin binding, rat uterus membranes; @ 10 μM
row,SMILES,% inhibition @ μM conc. (10 μM)
1,"CN1C(=O)[C@@H](NC(=O)CC2C3CCC(C)(C2O)C3(C)C)N=C(c2ccccc2)c2ccccc21 (single isomer, unassigned) [Example 22B]",41%

# Same assay, conditions: [^3H]oxytocin binding, rat uterus membranes; @ 10 μM; read-out: % inhibition @ μM conc. (10 μM)
row,SMILES,inhibition at 10 µM
1,"CN1C(=O)CN(C(=O)NCC23CC4CC(CC(C4)C2)C3)C(c2ccccc2)c2ccccc21 (racemic) [Example 12, (+/-)-1,2,3,5-TETRAHYDRO-1-METHYL-2-OXO-5-PHENYL-N-(TRICYCLO(3.3.1.1.(3,7))DEC-1-YLMETHYL)-4H-1,4-BENZODIAZEPINE-4-CARBOXAMIDE]",66%
2,"CN1C(=O)CN(C(=O)NC2C3CC4CC(C3)CC2C4)C(c2ccccc2)c2ccccc21 (racemic) [Example 13, (+/-)-1,2,3,5-TETRAHYDRO-1-METHYL-2-OXO-5-PHENYL-N-TRICYCLO(3.3.1.1(3,7))DEC-2-YL-4H-1,4-BENZODIAZEPINE-4-CARBOXAMIDE]",48%

# Same assay, conditions: read-out: % inhibition @ μM conc. (1 μM), [^3H]oxytocin binding, rat uterus membranes; @ 1 μM
row,SMILES,inhibition at 1 µM
1,"CN1C(=O)[C@H](NC(=O)C2C(=O)C3(C)CCC2C3(C)C)N=C(c2ccccc2)c2ccccc21 (stereo partly drawn) [Example 23, [3(R)-N-(2,3-DIHYDRO-1-METHYL-2-OXO-5-PHENYL-1H-1,4-BENZODIAZEPIN-3-YL)]-2- OXO-1,7,7-TRIMETHYLBICYCLO(2.2.1)HEPTANE-3-CARBOXAMIDE]",35%
2,"CN1C(=O)[C@H](NS(=O)(=O)C[C@]23CC[C@H](CC2=O)C3(C)C)N=C(c2ccccc2)c2ccccc21 [Example 20, (1S-(1.ALPHA.(S*),4.ALPHA.))-N-(2,3-DIHYDRO-1-METHYL-2-OXO-5-PHENYL-1H-1,4- BENZODIAZEPIN-3-YL)-7,7-DIMETHYL-2-OXO-BICYCLO(2.2.1)HEPTANE-1-METHANESULFONAMIDE]",35%
3,"CN1C(=O)[C@H](NC(=O)CC2C(=O)C3(C)CCC2C3(C)C)N=C(c2ccccc2)c2ccccc21 (single isomer, unassigned) [Example 19]",39%

# Same assay, conditions: read-out: % inhibition @ μM conc. (10 μM), [^3H]oxytocin binding, rat uterus membranes; @ 10 μM
row,SMILES,inhibition at 10 µM
1,"CCOC(=O)[C@@H](NC(=O)NC1N=C(c2ccccc2)c2ccccc2N(C)C1=O)c1ccccc1 (single isomer, unassigned) [Example 11, ALPHA.-((((2,3-DIHYDRO-1-METHYL-2-OXO-5-PHENYL-1H-1,4-BENZODIAZEPIN-3-YL)AMINO)CARBONYL)AMINO)BEN[…] ETHYL ESTER, ALPHA ISOMER]",46%
2,"CN1C(=O)[C@@H](NS(=O)(=O)C[C@@]23CC[C@@H](CC2=O)C3(C)C)N=C(c2ccccc2)c2ccccc21 [Example 14, (1R-(1.ALPHA.(R*),4.ALPHA.))-N-(2,3-DIHYDRO-1-METHYL-2-OXO-5-PHENYL-1H-1,4- BENZODIAZEPIN-3-YL)-7,7-DIMETHYL-2-OXO-BICYCLO(2.2.1)HEPTANE-1-METHANESULFONAMIDE]",52%
3,"CN1C(=O)[C@@H](NC(=O)CC2C3CCC(C)(C2O)C3(C)C)N=C(c2ccccc2)c2ccccc21 (single isomer, unassigned) [Example 22A]",50%
4,"CN1C(=O)[C@@H](NS(=O)(=O)C[C@]23CC[C@H](CC2=O)C3(C)C)N=C(c2ccccc2)c2ccccc21 [Example 21, (1S-(1.ALPHA.(R*), 4.ALPHA.))-N-(2,3-DIHYDRO-1-METHYL-2-OXO-5-PHENYL-1H-1,4-BENZODIAZEPIN-3-YL)-7,7-DIMETHYL-2-OXO-BICYCLO(2.2.1)HEPTANE-1-METHANESULFONAMIDE]",15%
5,"CN1C(=O)[C@@H](NC(=O)CC2C(=O)C3(C)CCC2C3(C)C)N=C(c2ccccc2)c2ccccc21 (single isomer, unassigned) [Example 18]",39%
6,"CN1C(=O)[C@H](NC(=O)C2C(=O)C3(C)CCC2C3(C)C)N=C(c2ccccc2)c2ccccc21 (stereo partly drawn) [Example 23, [3(R)-N-(2,3-DIHYDRO-1-METHYL-2-OXO-5-PHENYL-1H-1,4-BENZODIAZEPIN-3-YL)]-2- OXO-1,7,7-TRIMETHYLBICYCLO(2.2.1)HEPTANE-3-CARBOXAMIDE]",85%
7,"CN1C(=O)[C@H](NS(=O)(=O)C[C@]23CC[C@H](CC2=O)C3(C)C)N=C(c2ccccc2)c2ccccc21 [Example 20, (1S-(1.ALPHA.(S*),4.ALPHA.))-N-(2,3-DIHYDRO-1-METHYL-2-OXO-5-PHENYL-1H-1,4- BENZODIAZEPIN-3-YL)-7,7-DIMETHYL-2-OXO-BICYCLO(2.2.1)HEPTANE-1-METHANESULFONAMIDE]",80%
8,"CN1C(=O)[C@H](NC(=O)CC2C(=O)C3(C)CCC2C3(C)C)N=C(c2ccccc2)c2ccccc21 (single isomer, unassigned) [Example 19]",82%

# Same assay, conditions: read-out: [^3 H]OT(uterus) IC50; inhibition of [^3H]oxytocin binding, rat uterus membranes
row,SMILES,IC50
1,"CN1C(=O)C(NS(=O)(=O)CC23CCC(CC2O)C3(C)C)N=C(c2ccccc2)c2ccccc21 (single isomer, unassigned) [Example 16B, N-(2,3-DIHYDRO-1-METHYL-2-OXO-5-PHENYL-1H-1,4-BENZODIAZEPIN-3-YL)-2-HYDROXY-7,7-DIMETHYL-BICYCLO(2.2.1) HEPTANE-1-METHANESULFONAMIDE, ISOMER A AND ISOMER B]",1 µM
